Experiments:
[1] = Cytotoxicity assay (LDH release), MH-S; assay type: cell-based, murine; settings: mouse, MH-S cells, 0-100 μM
Experimental: (§1) Cytotoxicity assays. WI-L2 human B-lymphocyte line, HAAE-1 human abdominal aortic endothelial line, MH—S murine alveolar macrophage line, and J774A.1 murine tissue macrophage line were obtained from the ATCC. Human aortic endothelial cells (HAEC) and human vascular smooth muscle cells (VSMS) were obtained from Cambrex Bio Science. Jurkat E6-1T-lymphocytes were kindly provided by Dr. J. Kaye (The Scripps Research Institute). Cells were cultured in ATCC-recommended media with 10% fetal calf serum. Cells were incubated in a controlled atmosphere at 37° C., with 5 or 7% CO2. For lactate dehydrogenase (LDH) release assays, adherent cells were harvested either by addition of 0.05% trypsin/EDTA or by scraping. The cells obtained were seeded onto 96-well microtiter plates (25,000 cells/well) and allowed to recover for 24-48 h. […] Cytotoxicity was then determined by measuring lactate dehydrogenase (LDH) release from cells in culture. […] 100% Cytotoxicity was defined as the maximum amount of LDH released by dead cells as shown by trypan blue exclusion, or the highest amount of LDH detected upon lysis of cells by 0.9% Triton X-100. The IC50 values were determined by comparison of the raw duplicate data for concentration versus cytotoxicity (%) to non-linear regression analysis (Hill plot) using Graphpad v3.0 software for Macintosh. […]

[2] = Decrease of extractable 5a in stored plasma; assay type: in vitro ADME; settings: stored human plasma, preliminary investigations
From the text: The combined organic fractions were evaporated in vacuo.

[3] = Cytotoxicity assay (LDH release), VSMC; assay type: cell-based; settings: human, 0-100 μM
Experimental: as §1

[4] = Cytotoxicity assay (LDH release), J774A.1; assay type: cell-based, murine; settings: mouse, J774A.1 cells, 0-100 μM
Experimental: as §1

[5] = Cytotoxicity assay (LDH release), HAEC; assay type: cell-based; settings: human, 0-100 μM
Experimental: as §1

LDL / apoB-100 = LDL / apoB-100 (Homo sapiens, UniProt P04114); experiment: Circular dichroism of LDL secondary structure; assay type: biochemical; settings: LDL 100 μg/ml, compound 10 μM, PBS pH 7.4, 37° C., up to 48 h; for random coil of LDL after incubation: native LDL 27±2%; for α helical structure of LDL after incubation (loss of secondary structure): native LDL ~40±2%
Experimental: Circular dichroism. […] Spectra were recorded in the peptidic range (200-260 nm). To increase the signal-to-noise ratio, multiple spectra (three) were averaged for each measurement.

[6] = Cytotoxicity assay (LDH release), WI-L2; assay type: cell-based; settings: human
Experimental: as §1

[7] = Cytotoxicity assay (LDH release), Jurkat; assay type: cell-based; settings: human
Experimental: as §1

Sequence of LDL / apoB-100 (P04114 28-4563): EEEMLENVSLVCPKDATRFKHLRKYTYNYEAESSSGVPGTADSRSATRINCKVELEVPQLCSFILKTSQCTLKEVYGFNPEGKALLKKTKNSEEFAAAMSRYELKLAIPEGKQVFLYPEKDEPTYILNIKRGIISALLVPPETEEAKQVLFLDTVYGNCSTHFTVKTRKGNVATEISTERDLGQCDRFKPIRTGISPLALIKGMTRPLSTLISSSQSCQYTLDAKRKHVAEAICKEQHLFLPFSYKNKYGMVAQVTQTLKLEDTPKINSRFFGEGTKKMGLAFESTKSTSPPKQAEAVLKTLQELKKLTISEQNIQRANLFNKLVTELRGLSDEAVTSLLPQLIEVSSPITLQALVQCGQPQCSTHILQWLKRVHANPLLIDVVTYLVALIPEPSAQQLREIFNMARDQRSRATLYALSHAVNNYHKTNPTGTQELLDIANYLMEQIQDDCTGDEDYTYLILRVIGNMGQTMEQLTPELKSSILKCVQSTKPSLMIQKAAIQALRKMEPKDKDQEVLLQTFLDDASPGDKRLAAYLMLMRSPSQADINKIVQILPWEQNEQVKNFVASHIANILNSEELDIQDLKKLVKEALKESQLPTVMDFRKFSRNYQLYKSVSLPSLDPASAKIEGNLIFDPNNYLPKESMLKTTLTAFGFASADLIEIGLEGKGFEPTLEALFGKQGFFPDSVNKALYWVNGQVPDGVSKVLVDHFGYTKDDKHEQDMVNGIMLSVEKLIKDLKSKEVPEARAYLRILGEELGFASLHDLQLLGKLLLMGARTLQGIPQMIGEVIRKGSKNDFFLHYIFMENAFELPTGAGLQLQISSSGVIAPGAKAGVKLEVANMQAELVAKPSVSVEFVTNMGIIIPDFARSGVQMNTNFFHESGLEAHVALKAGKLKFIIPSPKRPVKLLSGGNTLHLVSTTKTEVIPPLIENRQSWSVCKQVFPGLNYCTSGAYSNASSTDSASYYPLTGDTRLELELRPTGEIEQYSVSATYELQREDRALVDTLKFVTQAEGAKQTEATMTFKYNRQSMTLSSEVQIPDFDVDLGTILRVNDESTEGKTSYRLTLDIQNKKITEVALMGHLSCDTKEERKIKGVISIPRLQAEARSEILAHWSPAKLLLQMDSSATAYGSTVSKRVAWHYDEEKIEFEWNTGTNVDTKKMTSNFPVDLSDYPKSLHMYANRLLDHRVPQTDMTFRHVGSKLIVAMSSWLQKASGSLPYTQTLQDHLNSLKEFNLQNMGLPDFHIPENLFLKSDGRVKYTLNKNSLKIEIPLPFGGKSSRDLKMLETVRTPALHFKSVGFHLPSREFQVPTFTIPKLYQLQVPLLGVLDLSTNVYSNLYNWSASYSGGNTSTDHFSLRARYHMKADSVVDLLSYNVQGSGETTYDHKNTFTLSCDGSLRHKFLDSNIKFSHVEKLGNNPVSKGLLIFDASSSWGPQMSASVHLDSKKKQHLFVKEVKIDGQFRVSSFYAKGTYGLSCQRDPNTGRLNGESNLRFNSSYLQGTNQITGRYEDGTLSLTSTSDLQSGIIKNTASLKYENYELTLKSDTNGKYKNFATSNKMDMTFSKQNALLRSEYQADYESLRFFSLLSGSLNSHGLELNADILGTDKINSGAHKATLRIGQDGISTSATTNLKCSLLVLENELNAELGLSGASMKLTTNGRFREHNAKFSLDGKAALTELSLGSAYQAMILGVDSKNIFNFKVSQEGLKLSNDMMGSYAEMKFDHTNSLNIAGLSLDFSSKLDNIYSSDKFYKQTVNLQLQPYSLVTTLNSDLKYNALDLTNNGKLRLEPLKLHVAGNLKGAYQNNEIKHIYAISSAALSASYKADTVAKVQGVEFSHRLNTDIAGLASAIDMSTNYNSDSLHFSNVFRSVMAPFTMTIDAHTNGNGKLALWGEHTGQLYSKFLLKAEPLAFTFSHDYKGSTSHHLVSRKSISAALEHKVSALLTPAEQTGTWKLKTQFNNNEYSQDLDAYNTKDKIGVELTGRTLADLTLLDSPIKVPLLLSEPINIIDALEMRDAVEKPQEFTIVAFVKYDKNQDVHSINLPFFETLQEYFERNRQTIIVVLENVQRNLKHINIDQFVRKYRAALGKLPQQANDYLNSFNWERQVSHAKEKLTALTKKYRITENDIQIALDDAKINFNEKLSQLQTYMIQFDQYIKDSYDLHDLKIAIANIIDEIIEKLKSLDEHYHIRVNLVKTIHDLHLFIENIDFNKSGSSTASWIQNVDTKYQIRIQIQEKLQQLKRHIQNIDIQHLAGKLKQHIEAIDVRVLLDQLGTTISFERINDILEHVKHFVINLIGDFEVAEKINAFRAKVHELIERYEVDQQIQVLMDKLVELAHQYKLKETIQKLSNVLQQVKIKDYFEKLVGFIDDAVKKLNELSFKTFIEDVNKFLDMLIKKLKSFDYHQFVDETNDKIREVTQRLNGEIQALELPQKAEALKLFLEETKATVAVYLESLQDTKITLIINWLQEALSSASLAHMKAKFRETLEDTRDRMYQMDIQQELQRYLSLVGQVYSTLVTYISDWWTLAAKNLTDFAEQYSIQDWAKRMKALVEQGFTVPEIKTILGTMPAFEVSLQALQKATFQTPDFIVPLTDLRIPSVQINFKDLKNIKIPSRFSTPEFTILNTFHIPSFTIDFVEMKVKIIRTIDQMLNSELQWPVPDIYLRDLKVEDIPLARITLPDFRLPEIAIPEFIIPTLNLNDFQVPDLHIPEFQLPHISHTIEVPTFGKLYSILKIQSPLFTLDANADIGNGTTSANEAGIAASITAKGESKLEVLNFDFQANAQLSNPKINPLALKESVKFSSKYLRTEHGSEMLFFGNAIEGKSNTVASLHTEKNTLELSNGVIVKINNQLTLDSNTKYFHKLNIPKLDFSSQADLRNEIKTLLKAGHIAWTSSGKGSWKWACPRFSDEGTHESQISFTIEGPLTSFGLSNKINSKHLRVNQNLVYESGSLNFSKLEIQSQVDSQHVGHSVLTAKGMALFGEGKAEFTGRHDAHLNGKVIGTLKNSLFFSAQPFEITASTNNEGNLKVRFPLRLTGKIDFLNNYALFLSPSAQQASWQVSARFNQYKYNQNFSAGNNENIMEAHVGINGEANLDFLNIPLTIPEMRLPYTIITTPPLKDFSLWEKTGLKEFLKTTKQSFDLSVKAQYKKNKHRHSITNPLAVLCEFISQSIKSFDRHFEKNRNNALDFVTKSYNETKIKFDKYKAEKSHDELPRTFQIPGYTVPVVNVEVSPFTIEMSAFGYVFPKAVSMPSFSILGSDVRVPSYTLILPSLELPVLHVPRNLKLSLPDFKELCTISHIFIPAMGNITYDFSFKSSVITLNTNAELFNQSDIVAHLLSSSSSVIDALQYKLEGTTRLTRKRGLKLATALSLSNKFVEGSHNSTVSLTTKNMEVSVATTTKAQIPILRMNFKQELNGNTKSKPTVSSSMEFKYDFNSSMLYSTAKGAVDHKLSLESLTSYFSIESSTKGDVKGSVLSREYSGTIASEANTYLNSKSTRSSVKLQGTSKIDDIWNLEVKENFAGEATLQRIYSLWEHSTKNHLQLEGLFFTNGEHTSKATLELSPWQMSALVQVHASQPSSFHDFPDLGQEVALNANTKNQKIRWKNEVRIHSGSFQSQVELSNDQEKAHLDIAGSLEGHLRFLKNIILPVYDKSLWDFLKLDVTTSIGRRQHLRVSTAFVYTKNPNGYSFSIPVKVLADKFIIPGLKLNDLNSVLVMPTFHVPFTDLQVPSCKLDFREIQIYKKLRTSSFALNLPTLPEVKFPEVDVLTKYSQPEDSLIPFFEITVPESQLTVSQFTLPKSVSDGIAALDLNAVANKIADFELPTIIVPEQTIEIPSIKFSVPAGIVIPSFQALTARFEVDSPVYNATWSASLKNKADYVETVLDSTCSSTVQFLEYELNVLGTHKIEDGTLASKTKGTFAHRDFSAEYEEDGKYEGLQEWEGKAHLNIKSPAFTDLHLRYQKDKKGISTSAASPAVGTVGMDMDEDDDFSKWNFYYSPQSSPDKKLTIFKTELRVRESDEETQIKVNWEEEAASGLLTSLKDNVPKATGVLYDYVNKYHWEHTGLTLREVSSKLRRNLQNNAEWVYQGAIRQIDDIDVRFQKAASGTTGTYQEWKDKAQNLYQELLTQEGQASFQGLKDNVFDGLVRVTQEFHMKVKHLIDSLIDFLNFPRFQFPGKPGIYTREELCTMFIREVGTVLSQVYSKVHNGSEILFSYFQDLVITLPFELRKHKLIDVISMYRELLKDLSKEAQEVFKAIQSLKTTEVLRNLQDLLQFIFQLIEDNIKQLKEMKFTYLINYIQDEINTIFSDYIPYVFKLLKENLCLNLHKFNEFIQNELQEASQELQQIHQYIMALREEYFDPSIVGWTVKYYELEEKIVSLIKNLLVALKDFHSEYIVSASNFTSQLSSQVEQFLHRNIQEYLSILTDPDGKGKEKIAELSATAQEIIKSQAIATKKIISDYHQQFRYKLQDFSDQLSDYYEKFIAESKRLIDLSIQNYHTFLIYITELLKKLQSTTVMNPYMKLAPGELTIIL

Row | Compound | IC50 at 18 h [1] [µM] | decrease of the amount that can be extracted from plasma [2] | IC50 at 18 h ([3]; VSMC cells) [µM] | IC50 at 18 h [4] [µM] | IC50 at 18 h ([5]; HAEC cells) [µM] | random coil of LDL after incubation (LDL / apoB-100) [%] | α helical structure of LDL after incubation (loss of secondary structure) (LDL / apoB-100) [%] | IC50 at 18 h ([6]; WIL2 cells, 18 h, 0-100 μM, read-out: IC50 (cytotoxicity, LDH release)) [µM] | IC50 at 18 h ([7]; Jurkat E6.1 cells, 18 h, 0-100 μM, read-out: IC50 (cytotoxicity, LDH release)) [µM] | IC50 at 18 h ([3]; vascular smooth muscle cells (VSMC)) [µM] | IC50 at 18 h ([5]; human aortic endothelial cells (HAEC)) [µM] | IC50 at 18 h [6] [µM] | IC50 at 18 h [7] [µM]
1 | CC(C)CCC[C@@H](C)[C@H]1CCC2C3C(CC[C@@]21C)[C@@]1(C)CC[C@H](O)C[C@@]1(O)[C@@H]3C=O (stereo partly drawn) [5a, 3β-Hydroxy-5β-hydroxy-B-norcholestane-6β-carboxaldehyde] | 13.6 ± 1.1 | about 5 % per day | 29.8 ± 2.8 | 26.1 ± 2.8 | 18.2 ± 1.9 | 32±4 | ~20±2 | 17.7 ± 2.3 | 12.6 ± 1.9 | – | – | – | –
2 | CC(C)CCC[C@@H](C)[C@H]1CCC2C(CC=O)C([C@@]3(C)CC[C@H](O)CC3=O)CC[C@@]21C (stereo partly drawn) [4a, 3β-Hydroxy-5-oxo-5,6-secocholestan-6-al] | – | – | – | – | – | ~39±2 | ~23±5 | – | – | 21.9 ± 2.2 | 24.6 ± 3.2 | 10.9 ± 1.6 | 15.5 ± 1.7

Reference: patent US20060217359A1, “Therapeutic procedures” (priority 2003, published 2006)
